Assay results: US20220347294A1, “COMPOSITIONS AND METHODS FOR INCREASING THE EFFICACY OF IMMUNOTHERAPIES AND VACCINES” (The Regents of the University of Michigan, priority 2019, published 2022)

How the values were obtained:
[1] = Potato starch gel formation; format: physicochemical; settings: in water, gentle stirring at 70° C., when the swelling was completed
Protocol: FIG. 22: Food grade potato starch was pre-hydrated at concentrations of 0.1, 0.5, 2.5, and 5% w/v in water, followed by gentle stirring at 70° C. After cooling, gel formation was examined.
Experiments were next conducted that examined gel formation using potato starch, another prebiotic natural fiber. The impact of potato starch concentration on gel formation was examined. Food grade potato starch (Bob's Red Mill) was pre-hydrated at desired concentrations of 0.1, 0.5, 2.5, and 5% w/v in water, followed by gentle stirring at 70° C. […] Potato starch was instantly gelatinized at concentrations above 5% w/v when the swelling was completed.

[2] = Fiber gel formation: inulin gel with added natural fibers or excipients; format: physicochemical; settings: heated at 70° C. for 5 minutes, cooled overnight
Source text: FIG. 24: Inulin gel was formed after adding various amounts of natural fibers or excipients. The values shown are the maximum amount of each ingredient that could be added to 23% w/w inulin gel without disrupting the gel formation.
Experiments were next conducted involving the formation of new fiber gels by combining inulin with other natural dietary fibers or pharmaceutical excipients. Briefly, inulin gels were manufactured by first mixing 23% w/w inulin together with other excipients, including resistant potato starch, pectin, guar gum, bean gum, gelatin, or glycerol. Other natural fibers would provide additional nutrient source for commensal microbiome, while other excipients served as thickening reagents in these formulations. The mixtures were then heated at 70° C. for 5 minutes, followed by cooling at room temperature overnight. During the manufacturing processes, both pre-dissolving and dry-blending were used in order to add the excipients, based on individual dissolutions in water. […] The ingredients were first mixed in water (top panel), heated at 70° C. for 5 minutes (middle panel), followed by cooling at room temperature overnight, leading to the formation of fiber gels (bottom panel) (FIG. 23).
Experiments were next conducted that varied the amount of natural fibers and excipients added to inulin gel and determined the ideal composition for forming fiber gels. […] The indicated values are the maximum amount of each ingredient that could be added to 23% w/w inulin gel without disrupting gel formation.

CT26 tumor = experiment: Tumor microenvironment analysis (tumor-infiltrating cells, flow cytometry); format: in vivo, BALB/c mice; settings: combined with α-PD-1 IgG, day 24
Protocol: After treatment with various samples, tumor tissues were excised at preset time points for analysis of tumor-infiltrating T cells. Tumor tissues were excised, cut into small pieces, and incubated with collagenase type IV (1 mg/ml) and of DNase I (0.1 mg/ml) with gentle shaking. After 30 min, cell suspension was filtered through a 70-μm strainer. Cells were washed with FACS buffer and blocked with anti-CD16/32 antibody. Cells were then stained with various antibodies (CD4 Monoclonal Antibody (GK1.5)-PE (eBioscience), APC-Anti-CD45 Rat Monoclonal Antibody (clone: 30-F11), FITC-Anti-CD45 Rat Monoclonal Antibody (clone: 30-F11), FITC-Rat Anti-Mouse CD8a Clone 53-6.7 (BD Biosciences), PE labeled H-2L-restricted SPSYVYHQF (SEQ ID NO.: 1), FITC-Anti-CD86 Rat Monoclonal Antibody (clone: GL-1, BioLegend), PE-CD11c Armenian Hamster anti Mouse (Clone: N418, eBioscience), PE-Cy7-Anti-mouse PD-1 (clone: 29F.1A12, BioLegend), FITC-CD44 Rat anti-Human/Mouse (clone: IM7, eBioscience), PE-Cy7-CD62L Monoclonal Antibody (MEL-14) (eBioscience), PE-Tcf1/Tcf7 (C63D9) Rabbit mAb (Cell Signaling Technology, #14456), PE-Cy7-Anti-mouse CD86 (Clone: GL1, BD Bioscience), FITC anti-mouse/human CD11b (M1/70, BioLegend), PE-anti-mouse F4/80 (BM8, BioLegend), or APC anti-mouse CD206 (MMR, BioLegend)). The cells were washed and stained with DAPI, or 7-AAD, or efluor 450 for flow cytometric analysis.

[3] = tested on: AH1-specific CD8+ T cells; experiment: Tetramer analysis of AH1-specific CD8+ T cells in PBMCs; format: in vivo, BALB/c mice; settings: prophylactic oral gavage combined with α-PD-1 IgG; peripheral blood day 22
Source text: The effect of these materials were next tested on systemic immune responses. The surrogate marker of tumor specific antigen, MHC-I minimal epitope of CT-26 gp70 (AH1) (H-2L^d-restricted SPSYVYHQF (SEQ ID NO.: 1)), was employed to quantitate the frequency of AH1-specific CD8^+ T cells among peripheral blood mononuclear cells (PBMCs). Mice orally gavaged with inulin and melatonin combined with α-PD-1 IgG induced 1.7-fold and 1.8-fold greater frequencies of AH1-specific CD8^+ T cells, compared with α-PD-1 treatment alone (FIGS. 1E and F).
Peripheral blood mononuclear cells (PBMCs) were collected at preset times to analyze tumor antigen-specific CD8^+ T cells in the systemic circulation. Red blood cells were lysed, and the remaining cells were blocked with anti-CD16/32 antibody for 10 min and stained with peptide-MHC tetramer, including H-2L^d-restricted SPSYVYHQF (SEQ ID NO.: 1) or H-2D^b-restricted ASMTNMELM (SEQ ID NO.: 3). Both the tetramers were provided by NIH Tetramer Core Facility. Cells were also stained anti-CD8-APC (BD Biosciences, #553035) and DAPI for flow cytometric analysis.

CT26 cells = experiment: Therapeutic oral gavage plus α-PD-1 in the CT26 tumor model; format: in vivo, BALB/c mice; settings: 60 mg for inulin, 50 mg/Kg for melatonin
Protocol: (A) 1.5×10^5 CT26 cells were inoculated in BALB/c mice subcutaneously (sc) on day 0. Mice were gavaged from day 7 (5 times per week). On days 11, 15, 19 and 23, α-PD-1 was injected intraperitoneally (ip) at 100 μg per dose. (B) The average tumor growth curves for mice gavaged with various compounds. Data represent mean±SEM. (C) Individual tumor growth curves and (D) survival rate curves of various groups. […] All the data are from 2-3 independent experiments; n=10 (B, C, D), n=7-10 (E, F) *p<0.05, **p<0.01, analysed by two-way ANOVA (B), one-way ANOVA (E, F) or log-rank (Mantel-Cox) test.
(B) The average tumor growth curves and individual tumor growth curve for mice gavaged with inulin or inulin gel (60 mg/dosage). 1.5×10^5 CT26 cells were inoculated in BALB/c mice subcutaneously. Gavage started from day 7 (5 times per week) and 100 μg of α-PD-1 was ip injected on days 11, 15, 19, 23 and 27. (C) The survival rate curves of various groups. […] PBS was used as a control. […] Shown are the average and individual tumor growth curves for tumor-bearing mice. IgG antibody was used as a control group. Data represent mean SEM. All the data are from 2-3 independent experiments; n=10 (B, C), n=5 (D, I), n=10-15 (E), n=4-7 (G, F), *p<0.05, **p<0.01, ***p<0.001, analysed by one-way ANOVA (E, F), two-way ANOVA (B, I), or log-rank (Mantel-Cox) test (C).
Female C57BL/6 or BALB/c mice of 6-8-week old were obtained from Jackson Laboratory. BALB/c mice were inoculated with 1.5×10^5 CT26 cells per mouse, while C57BL/6 mice were inoculated with 1.2×10^6 MC38 cells per mouse on the right flank by subcutaneous injection on day 0. Tumor-bearing mice were randomly assigned to different groups on day 5. For prophylactic antitumor study, mice were received oral gavage with melatonin (100 mg/Kg bodyweight/dosage), EGCG (100 mg/Kg bodyweight/dosage), fucoidan (200 mg/Kg bodyweight/dosage), oligofructose (120 mg/dosage), or inulin (120 mg/dosage) three times for one week prior to tumor inoculation. After tumor inoculation, mice received oral gavage three times in the first week, followed by five times per week. Mice were injected i.p. with α-PD-1 antibody (100 μg/dosage) on days 10, 14, 18 and 22 post tumor inoculation. For the therapeutic therapy, mice were inoculated with tumor cells on day 0 as indicated above and treated with the indicated samples by oral gavage starting day 7 post tumor inoculation.

| Compound | maximum amount of ingredient that could be added to 23% w/w inulin gel without disrupting gel formation [2] | further results |
| --- | --- | --- |
| potato starch | 5 % (w/w) | concentration at which potato starch was instantly gelatinized [1]: above 5 % w/v |
| COc1ccc2[nH]cc(CCNC(C)=O)c2c1 [melatonin, reference compound] | – | intratumoral infiltration of T cells compared with α-PD-1 IgG alone (CT26 tumor): significantly enhanced; frequencies of AH1-specific CD8+ T cells among PBMCs, fold greater than α-PD-1 treatment alone [3]: 1.8 fold; combination efficacy with α-PD-1 against tumor growth after reducing the dosage by half (CT26 cells): did not compromise |
| pectin | 2 % (w/w) | – |
| OCC(O)CO [glycerol] | 50 % (w/w) | – |
| guar gum | 0.5 % (w/w) | – |
| gelatin | 5.0 % (w/w) | – |
